Values quoted from earlier work, collected in publication PMC7468272 (Acta Pharmacologica Sinica, 2019).

Tested on: CBP/p300

Question: With `CO[C@H]1CC[C@H](n2c([C@@H]3CCCC(=O)N3c3ccc(F)c(F)c3)nc3cc(-c4c(C)noc4C)ccc32)CC1` [CCS1477] as the compound, how does the “affinity for CBP/p300” value read?
Answer: single-digit nanomolar affinity
